Values of other authors in patent US12281362B2, “Diagnostic tools and treatments for clear cell renal cell carcinoma” (University of Cincinnati, priority 2020, dated 2025).

Columns and labels:
[1] = clinic
localized RCC = settings: adjuvant setting

Row | Structure (SMILES) | adverse effects [1] | survival (localized RCC)
1 | CCN(CC)CCNC(=O)c1c(C)[nH]c(/C=C2\C(=O)Nc3ccc(F)cc32)c1C [Sunitinib] | serious adverse effects | –
2 | CNC(=O)c1cc(Oc2ccc(NC(=O)Nc3ccc(Cl)c(C(F)(F)F)c3)cc2)ccn1 [sorafenib] | – | did not improve survival
